Measurements published in patent publication US4065356A, “Production of antibiotic FR-02A (efrotomycin) by streptomyces lactamdurans” (priority 1977, dated 1977).
“Also recorded” adds a separate entry of the source.

Key:
[1] = test system: M. arthritidis; assay: in vitro activity; type: cell-based
[2] = test system: E. coli (MB 1418); assay: in vitro activity; type: cell-based
[3] = test system: Streptococcus faecum; assay: in vitro activity; type: cell-based
[4] = test system: PPLO; assay: PPLO in cattle; type: in vivo
[5] = test system: Pseudomonas stutzeri (MB 1231); assay: in vitro activity; type: cell-based
[6] = test system: bacteria; assay: antibacterial activity in vivo in mice; details: in words
[7] = test system: M. gallisepticum; assay: M. gallisepticum air sacculitis in broilers; type: in vivo
[8] = test system: species of Pasteurella; assay: in vitro activity; type: cell-based
[9] = test system: Salmonealla gallinarum (MB 1287); assay: in vitro activity; type: cell-based
[10] = test system: Aerobacter aerogenes 835; assay: Antibiotic Spectrum Profile, agar diffusion test; type: cell-based; details: Klebsiella aerogenes, 1 mg./ml., read-out: Diameters of Inhibition Zones
[11] = test system: Bordetella; assay: in vitro activity; type: cell-based
[12] = test system: Escherichia coli 1418; assay: Antibiotic Spectrum Profile, agar diffusion test; type: cell-based; details: 1 mg./ml., read-out: Diameters of Inhibition Zones
[13] = test system: M. hyorthinis; assay: in vitro activity; type: cell-based
[14] = test system: Bacillus subtilis (MB 797); assay: in vitro activity; type: cell-based
[15] = test system: Vibrio percolans American Type Culture Collection (ATCC 8461); assay: disc-plate assay, zone of inhibition; type: cell-based
Experimental: Assays were run by the disc-plate procedure using 3/8 inch filter paper discs. The assay plates were prepared using Difco nutrient agar plus 2.0 g./l. Difco yeast extract at 10 ml. per plate. An overnight growth of the assay organism, Vibrio percolans American Type Culture Collection (ATCC 8461) in nutrient broth plus 0.2% yeast extract was diluted in sterile saline solution to a suspension having 40% transmittance at a wave length of 660 mμ. This suspension was added at 20 ml./liter of medium prior to pouring the plates.
The assay plates were held at 4° C. until used (5 day maximum). Following the application of the antibiotic-saturated assay discs the plates were incubated at 28° C. for a period of from 16 to 24 hours. Zones of inhibition were read as mm. diameter. They were used to determine relative potencies or, when compared with a purified reference standard, the potency in μg./ml. Assays of FR-02A in fermentation broths, mycelia and suspended nutrient matter separated from fermentation broths and in broths free of solids were performed after extracting the FR-02A into a suitable solvent. […] When such an assay is performed in a quantitative fashion, from 50 to 100 μg./ml. of antibiotic can be detected.

[16] = test system: Staphylococcus aureus (MB 108); assay: in vitro activity; type: cell-based
[17] = test system: species of Mycoplasma; assay: activity against Mycoplasma; type: cell-based
[18] = growth promotion in animals; type: in vivo, animals such as chickens, sheep and cattle; details: feed additive
[19] = test system: Bacillus subtilis 964; assay: Antibiotic Spectrum Profile, agar diffusion test; type: cell-based; details: 1 mg./ml., read-out: Diameters of Inhibition Zones
[20] = test system: coccidia; assay: mouse coccidiosis; details: in vivo
[21] = test system: M. synoviae; assay: in vitro activity; type: cell-based
[22] = solubility; type: physicochemical; details: water-immiscible organic solvents
[23] = test system: gram-positive bacteria; assay: antibacterial activity; type: cell-based
[24] = test system: E. coli 60; assay: Antibiotic Spectrum Profile, agar diffusion test; type: cell-based; details: Escherichia coli, 1 mg./ml., read-out: Diameters of Inhibition Zones
[25] = test system: Erwinia auroseptica 1159; assay: Antibiotic Spectrum Profile, agar diffusion test; type: cell-based; details: 1 mg./ml., read-out: Diameters of Inhibition Zones
[26] = test system: M. gallisepticum; assay: in vitro activity; type: cell-based
[27] = test system: Strep. faecium 2820; assay: Antibiotic Spectrum Profile, agar diffusion test; type: cell-based; details: Enterococcus faecium, 1 mg./ml., read-out: Diameters of Inhibition Zones
[28] = test system: S. aureus 3032; assay: Antibiotic Spectrum Profile, agar diffusion test; type: cell-based; details: Staphylococcus aureus, 1 mg./ml., read-out: Diameters of Inhibition Zones
[29] = test system: Klebsiella pneumoniae 1264; assay: Antibiotic Spectrum Profile, agar diffusion test; type: cell-based; details: 1 mg./ml., read-out: Diameters of Inhibition Zones
[30] = test system: Proteus vulgaris 838; assay: Antibiotic Spectrum Profile, agar diffusion test; type: cell-based; details: 1 mg./ml., read-out: Diameters of Inhibition Zones
[31] = test system: Streptococcusagalactiae; assay: in vitro activity; type: cell-based
[32] = test system: Streptococcus faecalis; assay: in vitro activity; type: cell-based
[33] = test system: Streptococcus faecalis 753; assay: Antibiotic Spectrum Profile, agar diffusion test; type: cell-based; details: Enterococcus faecalis, 1 mg./ml., read-out: Diameters of Inhibition Zones
[34] = test system: coccidia; assay: chicken coccidiosis; type: in vivo; details: most prevalent types
[35] = test system: Staphylococcus aureus (MB 703); assay: in vitro activity; type: cell-based
[36] = test system: Proteus vulgaris 1012; assay: Antibiotic Spectrum Profile, agar diffusion test; type: cell-based; details: 1 mg./ml., read-out: Diameters of Inhibition Zones
[37] = test system: PPLO; assay: PPLO in pigs; type: in vivo
[38] = test system: coccidia; assay: activity against coccidia; type: cell-based
[39] = test system: Proteus vulgaris; assay: in vivo test in mice, Proteus vulgaris infection; details: infection IP, therapy IP, at time of infection and 6 hours later
Experimental: (§1) *Values in the table are expressed in mg./mouse. Both infections and
(§2) therapeutic doses of FR-02A were administered intraperitoneally. FR-02A
(§3) was administered at time of infection and again 6 hours later.

[40] = test system: Strep. pyogenes; assay: in vivo test in mice, Strep. pyogenes infection; details: infection IP, therapy IP, at time of infection and 6 hours later
Experimental: as §1, §2, §3

[41] = test system: Proteus vulgaris; assay: in vitro activity; type: cell-based

Which in vitro activity [1] does the source give for `CC=CC=CC1OC(O)(C(CC)C(=O)NCC=CC=C(C)C(OC)C(C)C2OC(C=CC=CC=C(C)C(=O)c3c(O)ccn(C)c3=O)C(O)C2O)C(O)C(OC2OC(C)C(OC3OC(C)C(OC)C(O)C3OC)C(OC)C2O)C1(C)C` (stereo not shown) [FR-02A, efrotomycin] here?
The in vitro activity was “effective”.

What about the activity [2] of the same compound?
Its activity is “Activity was also found”.

And the in vitro activity [3]?
The in vitro activity was “effective”.

And the “efficacy against PPLO” value [4]?
The value was “effective”.

What about the activity [5] of the same compound?
Its activity is “Activity was also found”.

And the “antibacterial activity in vivo” value [6]?
The value was “broad spectrum of antibacterial activity”.

What about the ED50 ([7]; Mycoplasmoides gallisepticum, air sacculitis in broilers) of the same compound?
Its ED50 is 40 to 100 mg/kg.

And the “efficacy against M. gallisepticum air sacculitis” value ([7]; subcutaneously, broilers)?
The value was “efficacious”.

And the in vitro activity [8]?
The in vitro activity was “effective”.

What about the activity [9] of the same compound?
The activity was “Activity was also found”.

And the zone of inhibition at 1000 µg/mL [10]?
The zone of inhibition at 1000 µg/mL was 13 mm.

What about the in vitro activity [11] of the same compound?
Its in vitro activity is “effective”.

What about the zone of inhibition at 1000 µg/mL [12] of the same compound?
The zone of inhibition at 1000 µg/mL was 15 mm.

What about the in vitro activity [13] of the same compound?
The in vitro activity was “effective”.

And the activity [14]?
The activity was “Activity was also found”.

And the zone of inhibition at 200 µg/mL ([15]; Comamonas terrigena, ATCC8461, 200 μg./ml., 3/8 inch discs, read-out: zones of inhibition)?
The zone of inhibition at 200 µg/mL was 16 mm.

What about the activity ([15]; Vibrio percolans (ATCC 8461)) of the same compound?
The activity was “Activity was also found”.

And the activity [16]?
Its activity is “Activity was also found”.

What about the “activity against species of Mycoplasma” value [17] of the same compound?
Its value is “shows activity”.

What about the growth promotion [18] of the same compound?
The growth promotion was “shortens the time required for bringing animals up to marketable weight”.

And the zone of inhibition at 1000 µg/mL [19]?
The zone of inhibition at 1000 µg/mL was 19 mm.

And the “efficacy against mouse coccidiosis” value [20]?
The value was “effective”.

What about the in vitro activity [21] of the same compound?
The in vitro activity was “effective”.

What about the “solubility in water-immiscible organic solvents” value [22] of the same compound?
Its value is “highly soluble”.

And the “activity against gram-positive bacteria” value [23]?
The value was “shows activity; also recorded: effective”.

And the zone of inhibition at 1000 µg/mL [24]?
Its zone of inhibition at 1000 µg/mL is 10 mm.

What about the zone of inhibition at 1000 µg/mL [25] of the same compound?
Its zone of inhibition at 1000 µg/mL is 12 mm.

What about the in vitro activity [26] of the same compound?
Its in vitro activity is “effective”.

And the zone of inhibition at 1000 µg/mL [27]?
Its zone of inhibition at 1000 µg/mL is 20 mm.

What about the zone of inhibition at 1000 µg/mL [28] of the same compound?
Its zone of inhibition at 1000 µg/mL is 12 mm.

What about the zone of inhibition at 1000 µg/mL [29] of the same compound?
The zone of inhibition at 1000 µg/mL was 16 mm.

What about the zone of inhibition at 1000 µg/mL [30] of the same compound?
Its zone of inhibition at 1000 µg/mL is 18 mm.

And the in vitro activity [31]?
Its in vitro activity is “effective”.

What about the in vitro activity [32] of the same compound?
Its in vitro activity is “effective”.

And the zone of inhibition at 1000 µg/mL [33]?
The zone of inhibition at 1000 µg/mL was 11 mm.

And the “efficacy against chicken coccidiosis” value [34]?
The value was “effective”.

And the activity [35]?
Its activity is “Activity was also found”.

And the zone of inhibition at 1000 µg/mL [36]?
Its zone of inhibition at 1000 µg/mL is 10 mm.

And the “efficacy against PPLO” value [37]?
The value was “effective”.

And the activity against coccidia [38]?
The activity against coccidia was “shows activity”.

And the ED50 [39]?
Its ED50 is 1.73 mg./mouse.

What about the ED50 [40] of the same compound?
The ED50 was 0.247 mg./mouse.

What about the in vitro activity [41] of the same compound?
The in vitro activity was “effective”.
